One series deals with S. pyogenes (M1). Type of series: cell-based, Streptococcus pyogenes. The following applies: for MBC: M1. How it is done:
(§1) Peptides were screened against Escherichia coli (BL21), Streptococcus pyogenes (M1T1 5448, hereby referred to as M1), Pseudomonas aeruginosa (PAO1), and Staphylococcus aureus (USA300). Overnight bacterial cultures were grown in optimal media for each species: Luria-Bertani (LB) broth for E. coli, P. aeruginosa, and S. aureus, and Todd-Hewitt (TH) broth for S. pyogenes. Cultures were pelleted and re-suspended in Mueller-Hinton (MH) broth for peptide screens or minimal inhibitory concentration (MIC) assays, with 1 × 10^6 CFU/mL bacteria added per well ([Wiegand et al., 2008]). MICs for each parent peptide were identified against each bacterial strain as previously described ([Fields et al., 2018]). Members of each peptide library were screened against each bacterial strain at half of the MIC of the corresponding parent peptide to identify library members with increased antimicrobial activity relative to the parent peptide. […] Minimal bactericidal concentrations (MBCs) were determined following the respective MIC assays by plating aliquots from wells corresponding to each peptide concentration from the 96-well plate used for the MIC on species-appropriate agar. Plates were incubated at 37°C overnight, and MBCs were identified as the lowest concentrations of peptide at which no colonies were obtained. A Synergy H1 Microplate Reader (BioTek, Winooski, VT, United States) was used to determine the MICs and identify peptides with greater antimicrobial activity than the corresponding parent peptide by measuring OD 600 of the bacterial cultures in 96-well microtiter plates.

Another series has as its system sheep erythrocytes. Type of series: cell-based. The following applies: red cells of sheep, 1 h. How it is done:
To determine if peptide variants were hemolytic, fresh defibrinated whole sheep blood (Hardy Diagnostics) was washed three times in cold PBS, and washed blood was diluted 1:25 in PBS. Treatments were applied at a 1:10 ratio of sample:blood, where the sample was either 10% Triton, PBS, or a specific peptide concentration corresponding to concentrations used in the MIC assays. Treatments were incubated with the blood for 1 h at 37°C. Following incubation, samples were centrifuged at […] for 10 min at 4°C, and the absorbance of the supernatants at 450 nm was measured on the Synergy H1 Microplate Reader to measure the release of hemoglobin. Percent hemolysis was quantified by normalizing to the negative and positive controls.

The next series deals with S. aureus (USA300). It is filed as cell-based, Staphylococcus aureus. The following applies: for MBC: USA300; for MIC: USA300, 16 h. How it is done:
as §1

The subject of the next series is E. coli (BL21). Type of series: cell-based, Escherichia coli. The following applies: for MBC: BL21; for MIC: BL21, 16 h. How it is done:
as §1

Another series concerns P. aeruginosa (PAO1). It is filed as cell-based, Pseudomonas aeruginosa. The following applies: for MBC: PAO1; for MIC: PAO1, 16 h. How it is done: as §1

Where two headings read alike, the source gives them in different places. Residues, ends and D or L forms follow the SMILES beside them.

The term MBC denotes the lowest tested concentration that kills the bacteria rather than only halting them. As a reminder, the MIC is the lowest concentration that inhibits growth of the organism. For `CC[C@H](C)[C@H](NC(=O)[C@H](CCCCN)NC(=O)CNC(=O)[C@H](Cc1ccccc1)NC(=O)[C@H](CCCCN)NC(=O)[C@H](CCCNC(=N)N)NC(=O)[C@H](CC(C)C)NC(=O)[C@H](Cc1ccc(O)cc1)NC(=O)[C@H](CCC(=O)O)NC(=O)[C@H](CC(C)C)NC(=O)[C@H](CC(C)C)NC(=O)[C@H](CCC(=O)O)NC(=O)[C@H](CCCCN)NC(=O)[C@@H](NC(=O)[C@H](CC(C)C)NC(=O)[C@H](CCCNC(=N)N)NC(=O)[C@H](CC(N)=O)NC(=O)[C@H](C)NC(=O)[C@H](CCCCN)NC(=O)[C@H](C)N)[C@@H](C)O)C(=O)N[C@@H](C)C(=O)N[C@@H](CCCNC(=N)N)C(=O)N[C@@H](CCCCN)C(=O)N[C@@H](C)C(=O)N[C@@H](Cc1c[nH]c2ccccc12)C(=O)O` [Syn-xiamencin-96] (H-AKANRLTKELLEYLRKFGKIARKAW-OH; N-terminus and C-terminus assumed), the MBC with S. pyogenes (M1) worked out at 4 µM; in the series on S. aureus (USA300) it was 8 µM; in the series with E. coli (BL21), 2 µM; with P. aeruginosa (PAO1) it was 16 µM. The MIC with S. pyogenes (M1) (M1, 16 h) turned out to be 4 µM; in the series with S. aureus (USA300), 8 µM; in the series with E. coli (BL21) it was 2 µM; in the series on P. aeruginosa (PAO1), 16 µM. Further, the “Percent Hemolysis” value in the series on sheep erythrocytes is listed as 20.0%.

Regarding `CC[C@H](C)[C@H](NC(=O)[C@H](CCCCN)NC(=O)[C@H](C)NC(=O)[C@H](CCCNC(=N)N)NC(=O)[C@H](CCCCN)NC(=O)[C@H](CCCCN)NC(=O)CNC(=O)[C@H](CCC(=O)O)NC(=O)[C@H](CCC(N)=O)NC(=O)[C@@H](NC(=O)[C@H](CCCCN)NC(=O)[C@H](CCCCN)NC(=O)[C@H](CCCCN)NC(=O)[C@H](CC(C)C)NC(=O)[C@H](Cc1ccccc1)NC(=O)[C@H](CCC(N)=O)NC(=O)[C@H](CCCNC(=N)N)NC(=O)[C@@H](NC(=O)[C@@H](NC(=O)[C@H](CCC(=O)O)NC(=O)[C@H](CCCCN)NC(=O)CNC(=O)[C@H](C)N)[C@@H](C)O)[C@@H](C)CC)[C@@H](C)CC)C(=O)N[C@@H](C)C(=O)N[C@@H](Cc1c[nH]c2ccccc12)C(=O)O` [Syn-larvacin-92] (H-AGKETIRQFLKKKIQEGKKRAKIAW-OH; N-terminus and C-terminus assumed), the MBC in the series on S. pyogenes (M1) turned out to be 1 µM; in the series with S. aureus (USA300) it was 8 µM; in the series with E. coli (BL21), 2 µM; in the series on P. aeruginosa (PAO1), 128 µM. Further, the MIC stood at 1 µM with S. pyogenes (M1) (M1, 16 h); 2 µM in the series on S. aureus (USA300); 2 µM in the series on E. coli (BL21); 64 µM in the series on P. aeruginosa (PAO1). The “Percent Hemolysis” value in the series with sheep erythrocytes is reported as 29.9%.

With `CC[C@H](C)[C@H](NC(=O)[C@H](CCCNC(=N)N)NC(=O)[C@H](CCC(N)=O)NC(=O)[C@@H](NC(=O)CNC(=O)[C@@H](N)Cc1c[nH]c2ccccc12)[C@@H](C)O)C(=O)N[C@@H](CCCCN)C(=O)N[C@@H](C)C(=O)N[C@@H](Cc1ccc(O)cc1)C(=O)N[C@@H](CC(C)C)C(=O)N[C@@H](CCCNC(=N)N)C(=O)N[C@@H](CCCNC(=N)N)C(=O)N[C@@H](CCC(=O)O)C(=O)N[C@H](C(=O)N[C@@H](CCCNC(=N)N)C(=O)N[C@@H](CCCCN)C(=O)N[C@@H](CCCNC(=N)N)C(=O)NCC(=O)N[C@@H](CCCNC(=N)N)C(=O)N[C@@H](CCCCN)C(=O)N[C@@H](C)C(=O)N[C@H](C(=O)N[C@H](C(=O)N[C@@H](C)C(=O)N[C@@H](Cc1c[nH]c2ccccc12)C(=O)O)[C@@H](C)CC)C(C)C)[C@@H](C)CC` [Syn-sordellicin-11] (H-WGTQRIKAYLRREIRKRGRKAVIAW-OH; N-terminus and C-terminus assumed), the MBC with S. pyogenes (M1) was 0.5 µM; with S. aureus (USA300), above 128 µM; with E. coli (BL21), 2 µM; in the series with P. aeruginosa (PAO1), 8 µM. Further, the minimal inhibitory concentration (MIC) with S. pyogenes (M1) (S. pyogenes M1) is 0.5 µM; in the series with S. aureus (USA300) it was above 128 µM; with E. coli (BL21) it was 2 µM; in the series on P. aeruginosa (PAO1), 8 µM. The “Percent Hemolysis” value in the series with sheep erythrocytes is reported as 21.3%.

Consider `CC[C@H](C)[C@H](NC(=O)[C@H](CCCNC(=N)N)NC(=O)[C@H](C)NC(=O)[C@H](CCCCN)NC(=O)[C@H](CCCCN)NC(=O)CNC(=O)[C@H](Cc1ccccc1)NC(=O)[C@H](CCCCN)NC(=O)[C@H](CCCNC(=N)N)NC(=O)[C@H](CC(C)C)NC(=O)[C@H](CCC(=O)O)NC(=O)[C@H](CCC(=O)O)NC(=O)[C@H](CCCCN)NC(=O)[C@H](CC(C)C)NC(=O)[C@H](Cc1ccc(O)cc1)NC(=O)[C@H](CC(C)C)NC(=O)[C@@H](NC(=O)[C@H](CC(C)C)NC(=O)[C@H](C)NC(=O)[C@H](CCC(N)=O)NC(=O)[C@H](CCCNC(=N)N)NC(=O)CNC(=O)[C@@H](N)Cc1c[nH]c2ccccc12)[C@@H](C)O)C(=O)N[C@@H](C)C(=O)N[C@@H](Cc1c[nH]c2ccccc12)C(=O)O` [Syn-xiamencin-13] (H-WGRQALTLYLKEELRKFGKKARIAW-OH; N-terminus and C-terminus assumed), for which the MBC in the series with S. pyogenes (M1) is 0.25 µM; in the series on S. aureus (USA300) it was above 128 µM; in the series with E. coli (BL21), 32 µM; in the series on P. aeruginosa (PAO1), above 128 µM. In addition, the MIC is 0.25 µM with S. pyogenes (M1) (S. pyogenes M1), above 128 µM in the series with S. aureus (USA300), 16 µM in the series with E. coli (BL21) and above 128 µM in the series with P. aeruginosa (PAO1).

For the compound `CC[C@H](C)[C@H](NC(=O)[C@H](CCCNC(=N)N)NC(=O)[C@H](C)NC(=O)[C@H](CCCCN)NC(=O)[C@H](CCCNC(=N)N)NC(=O)CNC(=O)[C@@H](NC(=O)[C@H](CCCCN)NC(=O)[C@H](CCCNC(=N)N)NC(=O)[C@@H](NC(=O)[C@H](CCC(=O)O)NC(=O)[C@H](CCCNC(=N)N)NC(=O)[C@H](CCCNC(=N)N)NC(=O)[C@H](CC(C)C)NC(=O)[C@H](Cc1ccc(O)cc1)NC(=O)[C@H](C)NC(=O)[C@H](CCCCN)NC(=O)[C@@H](NC(=O)[C@H](Cc1c[nH]c2ccccc12)NC(=O)[C@H](CCC(N)=O)NC(=O)[C@H](CCCNC(=N)N)NC(=O)CNC(=O)[C@H](C)N)[C@@H](C)CC)[C@@H](C)CC)C(C)C)C(=O)N[C@@H](C)C(=O)N[C@@H](Cc1c[nH]c2ccccc12)C(=O)O` [Syn-sordellicin-45] (H-AGRQWIKAYLRREIRKVGRKARIAW-OH; N-terminus and C-terminus assumed), the MBC with S. pyogenes (M1) amounted to 2 µM; in the series on S. aureus (USA300) it was 32 µM; in the series on E. coli (BL21), 1 µM; in the series on P. aeruginosa (PAO1), 32 µM. The MIC with S. pyogenes (M1) (M1, 16 h) was determined as 2 µM; with S. aureus (USA300), 32 µM; with E. coli (BL21), 1 µM; in the series on P. aeruginosa (PAO1), 16 µM.

The values above are taken from publication PMC7689250, “Synthetic Peptide Libraries Designed From a Minimal Alpha-Helical Domain of AS-48-Bacteriocin Homologs Exhibit Potent Antibacterial Activity” (Frontiers in Microbiology, 2020).
